Like-named read-outs stand apart in the source and are kept apart here.
Details: for AUC / CL / Cmax / t1/2: Table V; for AUC / CL / Cmax / t1/2 / AUC(tf) Mean / Cmax Mean / Tmax Median / tf Median / AUC(I) Mean / CL Mean / t½ Mean: 2 hour IV infusion; for AUC(tf) Mean / Cmax Mean / Tmax Median / tf Median: Table VI; for AUC(I) Mean / CL Mean / t½ Mean: Table VII
Method: The contents of the IV bag were infused over a two hour period. […] Each patient was dosed on a 28 day cycle, comprising an infusion once a week for the first three weeks of the cycle on days 1, 8, and 15 of each cycle, with no dose administered in the week following the third dose.

With CCc1cnn2c(NCc3ccc[n+]([O-])c3)cc(N3CCCC[C@H]3CCO)nc12 [Formula II] the drug accumulation (1.85 mg/m^2 on days 1, 8, 15 of 28 day cycle) was “drug accumulation is not evident”, the “dosage at which plasma levels of 25 nM (10 ng/mL) are available” value ([…]-hour infusions) was “greater than 1.32 mg/m^2” and the AUC (0.66 mg/M^2) was 32.1 ng·h/mL. The CL (0.66 mg/M^2) was 20.6 L/(hr m^2), the Cmax (0.66 mg/M^2) was 18.6 ng/mL and the t1/2 (0.66 mg/M^2) was 1.48 h. The Cmax (1.32 mg/M^2) was 63.8 ng/mL, the AUC (1.85 mg/M^2) was 201.2 (38) ng hr/mL and the CL (1.85 mg/M^2) was 10.2 (36) L/(hr m^2). The Cmax (1.85 mg/M^2) was 95.7 (26) ng/mL, the t1/2 (1.85 mg/M^2) was 2.29 (45) hours and the AUC (2.59 mg/M^2) was 213 (35) ng hr/mL. The CL (2.59 mg/M^2) was 12.9 (35) L/(hr m^2), the t1/2 (2.59 mg/M^2) was 3.0 (1) hours and the AUC (3.63 mg/M^2) was 423 (91) ng hr/mL. For the same compound, the CL (3.63 mg/M^2) was 14.7 (91) L/(hr m^2), the Cmax (3.63 mg/M^2) was 163 (63) ng/mL and the t1/2 (3.63 mg/M^2) was 2.56 (38) hours. For the same compound, the AUC (3.7 mg/M^2) was 336 ng·h/mL, the CL (3.7 mg/M^2) was 11.0 L/(hr m^2) and the Cmax (3.7 mg/M^2) was 136 ng/mL. For the same compound, the t1/2 (3.7 mg/M^2) was 2.75 h, the AUC (7.4 mg/M^2) was 972 ng·h/mL and the CL (7.4 mg/M^2) was 7.62 L/(hr m^2). For the same compound, the Cmax (7.4 mg/M^2) was 353 ng/mL, the t1/2 (7.4 mg/M^2) was 2.86 h and the AUC (14.8 mg/M^2) was 1053 ng·h/mL. For the same compound, the CL (14.8 mg/M^2) was 14.1 L/(hr m^2), the Cmax (14.8 mg/M^2) was 396 ng/mL and the t1/2 (14.8 mg/M^2) was 2.78 h. The AUC (29.6 mg/M^2) was 2434 (45) ng hr/mL, the CL (29.6 mg/M^2) was 14.0 (40) L/(hr m^2) and the Cmax (29.6 mg/M^2) was 890 (44) ng/mL. The t1/2 (29.6 mg/M^2) was 2.98 (11) hours, the AUC (41.4 mg/M^2) was 3041 (51) ng hr/mL and the Cmax (41.4 mg/M^2) was 1343 (48) ng/mL. The t1/2 (41.4 mg/M^2) was 2.80 (29) hours, the CL ([…]^2) was 13.1 L/(hr m^2) and the t1/2 ([…]^2) was 2.01 h. For the same compound, the “AUC(tf) Mean” value (1.85 mg/m^2, N 1) was 134 ng·h/mL, the “Cmax Mean” value (1.85 mg/m^2, N 1) was 62.5 ng/mL and the “Tmax Median” value (1.85 mg/m^2, N 1) was 1 h. For the same compound, the “tf Median” value (1.85 mg/m^2, N 1) was 8 h, the “AUC(tf) Mean” value (3.7 mg/m^2, N 1) was 336 ng·h/mL and the “Cmax Mean” value (3.7 mg/m^2, N 1) was 136 ng/mL. The “Tmax Median” value (3.7 mg/m^2, N 1) was 2 h, the “tf Median” value (3.7 mg/m^2, N 1) was 24 h and the “AUC(tf) Mean” value (7.4 mg/m^2, N 1) was 970 ng·h/mL. The “Cmax Mean” value (7.4 mg/m^2, N 1) was 353 ng/mL, the “Tmax Median” value (7.4 mg/m^2, N 1) was 2 h and the “tf Median” value (7.4 mg/m^2, N 1) was 24 h. The “AUC(tf) Mean” value (14.8 mg/m^2, N 1) was 1050 ng·h/mL, the “Cmax Mean” value (14.8 mg/m^2, N 1) was 396 ng/mL and the “Tmax Median” value (14.8 mg/m^2, N 1) was 2 h. For the same compound, the “tf Median” value (14.8 mg/m^2, N 1) was 24 h, the “AUC(tf) Mean” value (29.6 mg/m^2, N 6) was 2040 ng·h/mL and the “Cmax Mean” value (29.6 mg/m^2, N 6) was 890 ng/mL. The “Tmax Median” value (29.6 mg/m^2, N 6) was 1 h, the “tf Median” value (29.6 mg/m^2, N 6) was 24 h and the “AUC(tf) Mean” value (41.4 mg/m^2, N 6) was 2870 ng·h/mL. For the same compound, the “Cmax Mean” value (41.4 mg/m^2, N 6) was 1300 ng/mL, the “Tmax Median” value (41.4 mg/m^2, N 6) was 2 h and the “tf Median” value (41.4 mg/m^2, N 6) was 24 h. For the same compound, the “AUC(tf) Mean” value (50 mg/m^2, N 10) was 4050 ng·h/mL, the “Cmax Mean” value (50 mg/m^2, N 10) was 1820 ng/mL and the “Tmax Median” value (50 mg/m^2, N 10) was 1.5 h. The “tf Median” value (50 mg/m^2, N 10) was 24 h, the “AUC(tf) Mean” value (58 mg/m^2, N 3) was 3290 ng·h/mL and the “Cmax Mean” value (58 mg/m^2, N 3) was 1460 ng/mL. The “Tmax Median” value (58 mg/m^2, N 3) was 1 h, the “tf Median” value (58 mg/m^2, N 3) was 24 h and the “AUC(I) Mean” value (1.85 mg/m^2, N 1) was 136 ng·h/mL. For the same compound, the “CL Mean” value (1.85 mg/m^2, N 1) was 13.6 L/hr/m^2, the “t½ Mean” value (1.85 mg/m^2, N 1) was 1.42 h and the “AUC(I) Mean” value (3.7 mg/m^2, N 1) was 336 ng·h/mL. For the same compound, the “CL Mean” value (3.7 mg/m^2, N 1) was 11.0 L/hr/m^2, the “t½ Mean” value (3.7 mg/m^2, N 1) was 2.75 h and the “AUC(I) Mean” value (7.4 mg/m^2, N 1) was 972 ng·h/mL. The “CL Mean” value (7.4 mg/m^2, N 1) was 7.62 L/hr/m^2, the “t½ Mean” value (7.4 mg/m^2, N 1) was 2.86 h and the “AUC(I) Mean” value (14.8 mg/m^2, N 1) was 1050 ng·h/mL. The “CL Mean” value (14.8 mg/m^2, N 1) was 14.1 L/hr/m^2, the “t½ Mean” value (14.8 mg/m^2, N 1) was 2.78 h and the “AUC(I) Mean” value (29.6 mg/m^2, N 5) was 2430 ng·h/mL. The “CL Mean” value (29.6 mg/m^2, N 5) was 14.0 L/hr/m^2, the “t½ Mean” value (29.6 mg/m^2, n = 4) was 2.98 h and the “AUC(I) Mean” value (41.4 mg/m^2, N 6) was 2890 ng·h/mL. The “CL Mean” value (41.4 mg/m^2, N 6) was 26.8 L/hr/m^2 and the “t½ Mean” value (41.4 mg/m^2, N 6) was 2.84 h.

From US20100286038A1, “FORMULATION CONTAINING CYCLIN-DEPENDENT KINASE INHIBITING COMPOUND AND METHOD OF TREATING TUMORS USING THE SAME” (priority 2007, published 2010)
